The values that follow are results of earlier work, collected in patent US10113200B2, “Genes associated with dasatinib sensitivity” (MEMORIAL SLOAN-KETTERING CANCER CENTER, priority 2012, dated 2018).

In the data set the test system is patients with chronic phase CML. As to conditions: 100 mg once-daily compared with 70 mg twice-daily.

For `Cc1nc(Nc2ncc(C(=O)Nc3c(C)cccc3Cl)s2)cc(N2CCN(CCO)CC2)n1` [dasatinib], the safety profile result is “improves the safety profile, particularly decreasing pleural effusion and thrombocytopenia, while maintaining efficacy”.
